Measured values as given in patent publication US6548540B2, “Method of treating cancer using dithiocarbamate derivatives” (Charlotte-Mecklenburg Hospital Authority, priority 1998, dated 2003).
Read-outs that look alike come from different tables or passages of the source.

How the values were obtained:
[1] = tested on: Adenosquamous lung carcinoma NCI-H596; assay: MTT proliferation assay, adenosquamous lung carcinoma; type: cell-based; details: Homo sapiens, read-out: Mean Percent Inhibition of Growth; for inhibition at 0.625 µM: disulfiram 0.625 μM; for inhibition at 1.25 µM: disulfiram 1.25 μM; for inhibition at 2.5 µM: disulfiram 2.5 μM; for inhibition at 5 µM: disulfiram 5.0 μM
Description: Human malignant cell lines were obtained from American Type Tissue Culture Collection (Rockville, Md.). Melanoma cells lines CRL 1585 and 1619 were cultured in RPMI 1640 (GIBCO-BRL, Life Technologies, Grand Island, N.Y.) with 10% FBS and passed with nonenzymatic Cell Dissociation Solution® (Sigma). The prostate adenocarcinoma cell line CRL 1435 (PC-3) was also cultured in RPMI 1640 with 10% FBS but passed with 0.05% trypsin and 0.53 mM EDTA. The squamous lung carcinoma NCI-H520 and the adenosquamous lung carcinoma NCI-H596 cell lines were grown in RPMI 1640 supplemented with 10% FBS, 10 mM HEPES and 1.0 mM sodium pyruvate and passed with trypsin/EDTA. The small cell lung carcinoma NCI-H82 was cultured as a suspension in RPMI 1640 with 10% FBS. All of the above were grown in a 37° C. humidified environment containing 5% CO2/air. The breast carcinoma cell line MDA-MB-453 was grown in a 37° C. humidified environment with free gas exchange with atmospheric air using Leibovitz's L-15 medium with 2 mM L-glutamine and 10% FBS and was passed with trypsin/EDTA.
The effect of disulfiram (0.15 to 5.0 μM), diethyldithiocarbamate (DDC, 1.0 μM) or PDTC (0.625 to 5.0 μM) on proliferation of malignant cell lines was studied in cultures stimulated with 10% FBS. Cell numbers were quantitated 24-72 hours later. In some experiments disulfiram or PDTC were added immediately after cells were plated. In other experiments, cells were plated and allowed to grow for 24-72 hours before fresh media with disulfiram or PDTC was added, and cell numbers were assayed 24-72 hours later. Synergy was studied between disulfiram and N,N′-bis(2-chloroethyl-N-nitrosourea (carmustine or BCNU, 1.0 to 1,000 μM) or cisplatin (0.1 to 100 μg/ml) added to medium. The effect of metals on disulfiram was studied with 0.2 to 10 μM copper (provided as CuSO4), zinc (as ZnCl2), silver (as silver lactate) or gold (as HAuCl4.3H2O) ions added to growth medium. No pH changes occurred with addition of metal salts to culture medium. To provide a biologically relevant source of copper, in some experiments medium was supplemented with human ceruloplasmin at doses replicating low and high normal adult serum concentrations (250 and 500 μg/ml).
Proliferation of cultured cells was quantitated using a previously reported calorimetric method based upon metabolic reduction of the soluble yellow tetrazolium dye 3-[4,5-dimethylthiazol]-2yl-2,5-diphenyl tetrazolium bromide (MTT) to its insoluble purple formazan by the action of mitochondrial succinyl dehydrogenase (See, e.g., S. J. Hirst, et al., “Quantifying proliferation of cultured human and rabbit airway smooth muscle in response to serum and platelet derived growth factor,” Am. J. Respir. Cell Mol. Biol. 7:574-581 (1992); R. Dashtaki, et al. R., supra; S. S. Brar, et al., “Requirement for reactive oxygen species in serum-induced and platelet-derived growth factor-induced growth of airway smooth muscle,” J. Biol. Chem. 274:20017-20026 (1999)). This assay empirically distinguishes between dead and living cells. For proliferation studies, cells were seeded into 24-well uncoated plastic plates (Costar) at 50,000 cells per well and cultured with respective media and mitogens. After 24-96 hours, medium was removed, cells were washed twice with 1 ml of sterile Dulbecco's modified phosphate buffered saline without Ca^2+ or Mg^2+ (DPBS), the medium was replaced with 1 ml/well fresh medium containing 100 μg/ml MTT, and plates were incubated an additional hour. MTT-containing medium was removed, 0.5 ml dimethylsulfoxide (DMSO) was added to each well, and the absorbance of the solubilized purple formazan dye was measured at 540 nm. A total of 4-6 wells were studied at each treatment condition. Preliminary studies were performed with 50-200 μg/ml MTT incubated for 15 minutes to 3 hours to determine the optimum concentration and incubation time at which the rate of conversion was linear and proportional to the number of cells present. […]

M1619 melanoma cells = assay: Intracellular copper by plasma emission spectroscopy; type: cell-based, human; details: 6 hours, ng copper/ml of hydrolysate
Description: Finally, a number of dithiocarbamate effects on cells have been attributed to increasing the intracellular levels of copper ions. To further probe the role of copper in mediating cytotoxicity from disulfiram, cells were cultured with or without addition of the impermeate Cu^2+ chelator bathocuprioinedisulfonic acid (BCPS, 100 μM) added to medium to sequester Cu^2+ in the extracellular compartment. Cells were also treated 12 hours with various concentration of disulfiram (0.625 to 5.0 μM) and intracellular copper levels were measured as outlined below.
Cells were cultured in 12-well plastic tissue culture plates at an initial plating density of 50,000 cells/well, grown to confluence and treated with disulfiram or vehicle DMSO as outlined above. Media was removed and cells were washed twice with DPBS. Cells were then scraped into 1.0 ml of 3N HCl/10.0% trichloroacetic acid and hydrolyzed at 70° C. for 16 hours. The hydrolysate was centrifuged at 600 gm for 10 minutes to remove debris and copper was measured in the supernatant using inductively coupled plasma emission spectroscopy (Model P30, Perkin Elmer, Norwalk, Conn.) at wavelengths of […] and 224.700 nm. To minimize metal contamination, plasticware rather than glassware was used in these experiments, and double-distilled, deionized water was used for all aqueous media. Results are reported as ng copper/ml of hydrolysate.
M1619 melanoma cells were cultured at a density of 50,000 cells/well in 24 well plates in the presence of 10% FBS and grown to confluence. Disulfiram or DMSO vehicle (5 μl/ml) was added at the concentrations indicated, and cells were incubated an additional 6 hours. Supernatant was removed from cells and monolayers were washed twice with DPBS. Cells were scraped into 1.0 ml 3 N HCL/10% trichloroacetic acid and hydrolyzed at 70° C. for 16 hours. After centrifugation at 600 g×10 min, copper was measured using inductively coupled plasma emission spectroscopy at wavelengths of 324.754 and 224.700 nm. Replicates of four are reported. To minimize metal contamination, plastic ware rather than glass was used in experiments, and double-distilled, deionized water was used for all aqueous media. ^Ap<0.01 compared to DMSO control; ^Bp<0.001 compared to DMSO control.

[2] = treatment after 24 hours of growth, additional 24 hours
[3] = treatment initially, after 48 hours, 10% FBS

`CCN(CC)C(=S)SSC(=S)N(CC)CC` [Disulfiram, tetraethylthiuram disulfide] gave an inhibition at 0.625 µM [1, 2] of 30 ± 3%, an inhibition at 0.625 µM [1, 3] of 47 ± 4% and an inhibition at 1.25 µM [1, 2] of 30 ± 3%. The inhibition at 1.25 µM [1, 3] was 57 ± 4%, the inhibition at 2.5 µM [1, 2] was 29 ± 1% and the inhibition at 2.5 µM [1, 3] was 50 ± 3%. For the same compound, the inhibition at 5 µM [1, 2] was 34 ± 3%, the inhibition at 5 µM [1, 3] was 50 ± 4% and the “Intracellular Copper” value (M1619 melanoma cells; FBS + 0.625 μM DS) was 76 ± 11 ng/mL. For the same compound, the “Intracellular Copper” value (M1619 melanoma cells; FBS + 1.25 μM DS) was 102 ± 5^A ng/ml, the “Intracellular Copper” value (M1619 melanoma cells; FBS + 2.5 μM DS) was 160 ± 17^A ng/ml and the “Intracellular Copper” value (M1619 melanoma cells; FBS + 5.0 μM DS) was 195 ± 3^B ng/ml.
